PubChem BioAssay (NCI)
Several values for one entry are separate records, joined by “and”; a condition that tells them apart may be missing. Equal values may be shown once.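 In this assay, cells in 96-well plates receive the compound at five concentrations for 48 hours. Endpoints are linearly interpolated between the surrounding concentrations. At the GI50, growth is halved. TGI marks complete inhibition of growth.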

What was measured:
Test in all cases: DTP human tumour cell line panel, 48 h
[1] = test system: A549 NSCLC
[2] = test system: CAKI-1 renal
[3] = test system: HT29 colon
[4] = test system: NCI-H522 lung
[5] = test system: OVCAR-4 ovarian
[6] = test system: OVCAR-5 ovarian
[7] = test system: SF-539 CNS
[8] = test system: HS 578T breast
[9] = test system: MDA-MB-435
[10] = test system: T-47D breast

SMILES | TGI [1] [µM] | TGI [2] | TGI [3] [µM] | TGI [4] | TGI [5] [µM] | TGI [6] [µM] | TGI [7] | TGI [8] [µM] | TGI [9] [µM] | TGI [10] [µM] | GI50 [1] [µM] | GI50 [3] [µM] | GI50 [4] [µM] | GI50 [5] [µM] | GI50 [6] [µM] | GI50 [7] [µM] | GI50 [8] [µM] | GI50 [9] [µM] | GI50 [10] [µM] | GI50 [2] [µM]
COC(=O)[C@@]1(O)CC(C)C=C1C=O (some centres undefined) | 60.9 | > 100 µM | > 100 | 94.9 µM | > 100 | > 100 | > 100 µM | – | – | – | – | – | – | – | – | – | – | – | – | –
CCCCCCCCC(O)C#CC(N)=O (centres undefined) | 36.2 | 32.3 µM | 24.5 | – | 12 | 43.9 | 26.1 µM | – | – | – | – | – | – | – | – | – | – | – | – | –
COC1=C2C[C@H](O)C(C)C[C@@]2(OC)OC1=O (some centres undefined) | > 100 | > 100 µM | > 100 | > 100 µM | > 100 | – | > 100 µM | – | – | – | – | – | – | – | – | – | – | – | – | –
CCO/C=C1\N=C(C(Cl)c2ccccc2)OC1=O (centres undefined) | > 100 | > 100 µM | > 100 | > 100 µM | > 100 | > 100 | > 100 µM | – | – | – | – | – | – | – | – | – | – | – | – | –
Cc1ccc(-c2cc(=O)c3cc(C)c(C)c(C(=O)O)c3o2)cc1 | > 100 | – | > 100 | 54.5 µM | > 100 | > 100 | 75 µM | – | – | – | – | – | – | – | – | – | – | – | – | –
COc1ccc(OC)c(NCC#N)c1 | > 100 | – | > 100 | > 100 µM | > 100 | – | > 100 µM | – | – | – | – | – | – | – | – | – | – | – | – | –
COc1cc(C=O)c(-c2cc3c(cc2C2(C)OCCS2)OCO3)c(OC)c1OC (centres undefined) | > 97 | 71.4 µM | 20.7 | 13 µM | 173 | 129 | 17.4 µM | – | – | – | – | – | – | – | – | – | – | – | – | –
Cc1ccc(C(=O)N2c3ccccc3N(C)n3cccc3C2CC(=O)O)cc1 (centres undefined) | > 100 | > 100 µM | > 100 | > 100 µM | > 100 | > 100 | > 100 µM | – | – | – | – | – | – | – | – | – | – | – | – | –
CCOC(=O)[C@H]1CSC[C@@H](C(=O)OC)N1 | > 100 | > 100 µM | > 100 | > 100 µM | > 100 | > 100 | – | – | – | – | – | – | – | – | – | – | – | – | – | –
O=C(O)C(C(=O)C(=O)C(C(=O)O)c1ccc(Cl)cc1)c1ccc(Cl)cc1 (centres undefined) | 11.2 | 13.6 µM | 11.1 | 4.45 µM | 6.96 | 13.6 | 4.6 µM | – | – | – | – | – | – | – | – | – | – | – | – | –
CCCCCCCC(=O)OCC1OC(n2cc(F)c(=O)[nH]c2=O)C(NC(=O)OCc2ccccc2)C(O)C1O (centres undefined) | > 100 | > 100 µM | > 100 | 92 µM | > 100 | – | > 100 µM | – | – | – | – | – | – | – | – | – | – | – | – | –
N#C/C(=C\Nc1ccccn1)C(=O)c1ccco1 | > 100 | > 100 µM | > 100 | > 100 µM | > 100 | > 100 | > 100 µM | > 100 | > 100 | – | – | – | – | – | – | – | – | – | – | –
O=c1cc(-c2ccccc2)[nH]c2c(Cl)cccc12 | > 100 | – | > 100 | – | 66.3 | – | 41.7 µM | – | – | – | – | – | – | – | – | – | – | – | – | –
Cc1ccc(C(=O)N2CCN(C(=O)c3ccc(C)cc3)c3ccccc32)cc1 | > 100 | 82.7 µM | 21.3 | 5.96 µM | > 100 | > 100 | 11.9 µM | 29.8 | – | > 100 | – | – | – | – | – | – | – | – | – | –
CC(=O)OC(C)(C)/C=C/C(=O)[C@](C)(O)[C@H]1[C@H](O)C[C@@]2(C)[C@@H]3CC=C4[C@@H](C[C@H](O)C(=O)C4(C)C)[C@]3(CO)C(=O)C[C@]12C | 22.6 | 0.564 µM and 0.66 µM | – | 0.855 µM and 0.675 µM | 0.835 | 41 | 0.658 µM and 0.472 µM | – | – | – | 0.273 | 0.276 | 0.112 | 0.295 | 0.73 | 0.173 | – | – | – | –
C/C(CC(=O)Nc1ccc(Cl)cc1)=N\NC(=O)C[n+]1ccccc1 | > 100 | – | > 100 | > 100 µM | – | > 100 | > 100 µM | – | – | – | – | – | – | – | – | – | – | – | – | –
CCCCOC(=O)c1ccc(NC(=O)CCl)cc1 | 22.8 | – | 3.48 | 3.57 µM | – | 4.45 | 3.18 µM | 57.3 | 14.3 | 4.01 | 10.2 | 1.9 | 1.74 | – | 2.16 | 1.7 | 9.16 | 3.5 | 1.38 | –
CC(=O)C1COC(O)C1C (centres undefined) | > 100 | 62.9 µM | > 100 | – | – | 59.2 | 45.4 µM | 68.8 | 30.2 | > 100 | – | – | – | – | – | – | – | – | – | –

SMILES | TGI [1] [µM] | TGI [2] | TGI [3] [µM] | TGI [4] | TGI [5] [µM] | TGI [6] [µM] | TGI [7] | TGI [8] [µM] | TGI [9] [µM] | TGI [10] [µM] | GI50 [1] [µM] | GI50 [3] [µM] | GI50 [4] [µM] | GI50 [5] [µM] | GI50 [6] [µM] | GI50 [7] [µM] | GI50 [8] [µM] | GI50 [9] [µM] | GI50 [10] [µM] | GI50 [2] [µM]
NC(CC(=O)Nc1ccc(Cl)cc1)=Nc1ccccc1 | > 100 | > 100 µM | > 100 | > 100 µM | > 100 | > 100 | > 100 µM | – | – | – | – | – | – | – | – | – | – | – | – | –
O=[P+](O)c1cc2ccccc2c2ccccc12 | > 100 | – | > 100 | > 100 µM | > 100 | – | > 100 µM | – | – | – | – | – | – | – | – | – | – | – | – | –
O=C1[C@H]2ON(c3ccccc3)C(c3ccccc3F)[C@H]2C(=O)N1c1ccc(Cc2ccc(N3C(=O)[C@@H]4ON(c5ccccc5)C(c5ccccc5F)[C@@H]4C3=O)cc2)cc1 (some centres undefined) | > 100 | > 100 µM | > 100 | – | > 100 | > 100 | > 100 µM | – | – | – | – | – | – | – | – | – | – | – | – | –
COc1cc([C@H]2c3cc4c(cc3[C@H](NCc3ccc([N+](=O)[O-])cc3)C3COC(=O)[C@H]32)OCO4)cc(OC)c1O (some centres undefined) | 2.23 | 4.58 µM | 14.6 | – | > 100 | > 26 | 2.95 µM | – | – | – | – | – | – | – | – | – | – | – | – | –
CC1(C)N=C(N)N=C(N)N1c1ccc(CCc2ccc(Cl)cc2S(=O)(=O)F)c(Cl)c1 | > 100 | > 100 µM | – | – | 84.5 | > 100 | 26.1 µM | 41.3 | 25.4 | 45.2 | 1.49 | – | – | 9.09 | 4.76 | 5.54 | 11.1 | 4.27 | 17 | > 100
O=c1cc(-c2ccccc2)nc(/C=C(\O)c2ccncc2)n1-c1ccccc1 | > 100 | > 100 µM | > 100 | > 100 µM | > 100 | > 100 | > 100 µM | – | – | – | – | – | – | – | – | – | – | – | – | –
CN1CCN(C(=O)c2c(NC(=O)NS(=O)(=O)c3ccccc3)sc3c2CCCCC3)CC1 | > 100 | 54.4 µM | – | 98.6 µM | – | > 100 | 69.9 µM | > 100 | 67.8 | – | 65.7 | – | 30.4 | – | 76.3 | 29.7 | 40.3 | 26.2 | – | 20.3
C[C@]1(C(=O)O)N[C@H](C(=O)O)CS1 | > 1000 | > 1000 µM | > 1000 | > 1000 µM | > 1000 | > 1000 | – | – | > 1000 | > 1000 | > 1000 | > 1000 | > 1000 | > 1000 | > 1000 | – | – | > 1000 | > 1000 | 843
CCOc1ccccc1N1C(=O)C(=O)C(c2nc3ccccc3o2)/C(=N\N)C1=O (centres undefined) | > 100 | > 100 µM | > 100 | > 100 µM | > 100 | > 100 | > 100 µM | – | – | – | – | – | – | – | – | – | – | – | – | –
CSc1nc(SC)c2c(C(N)=S)[nH]nc2n1 | 65.6 | 56.5 µM | > 100 | – | 55.8 | – | 60 µM | – | – | – | – | – | – | – | – | – | – | – | – | –
CC(C)(c1ccc(Oc2ccc(C#N)c(C#N)c2)cc1)c1ccc(Oc2ccc(C#N)c(C#N)c2)cc1 | > 100 | > 100 µM | > 100 | > 100 µM | > 100 | > 100 | > 100 µM | – | – | – | > 100 | > 100 | > 100 | > 100 | > 100 | > 100 | – | – | – | > 100
CC1=C(C(=O)Nc2ccc([N+](=O)[O-])cc2)C(c2ccccc2O)C(C(=O)Nc2ccc([N+](=O)[O-])cc2)=C(C)N1 | 90.4 | 62.1 µM | 57.8 | 35.9 µM | 73.8 | 55.8 | 57.8 µM | – | – | – | – | – | – | – | – | – | – | – | – | –
CCOC(=O)c1cc2c(cn1)[nH]c1cccc(N)c12 | > 100 | > 100 µM | > 100 | > 100 µM | > 100 | > 100 | > 100 µM | – | – | – | – | – | – | – | – | – | – | – | – | –
CC1(C)CCC[C@]2(C)c3cc(O)ccc3CC[C@@H]12 | 36.5 | 35.9 µM | 43.7 | 47.4 µM | 33.6 | 27.9 | 33.1 µM | 31.3 | 21 | – | 19 | 23.2 | 21.5 | 16.6 | 14 | 18.3 | 15.6 | 6.65 | – | 19.5
Nc1nc(NC2C=C(CO)C(O)C2O)c([N+](=O)[O-])c(=O)[nH]1 (centres undefined) | > 100 | > 100 µM | > 100 | > 100 µM | > 100 | > 100 | > 100 µM | – | – | – | – | – | – | – | – | – | – | – | – | –
COc1ccc(C2=Nc3c/c(=C\c4c(O)[nH]c5ccc(Cl)cc45)ccc3=N2)cc1 | – | – | – | – | 3.34 | 4 | 3.87 µM | 4.8 | – | 5.63 | – | – | – | 1.8 | 1.86 | 1.78 | 1.73 | – | 2.22 | –
CCCCN=C(NC#N)N(Cc1ccccc1)Cc1ccccc1 | > 100 | 66.4 µM | 28.7 | 31.1 µM | > 100 | 87.5 | 48.2 µM | – | – | – | – | – | – | – | – | – | – | – | – | –
CC(C)(O)[C@@H]1CC[C@@]2(C)CCC[C@H](O)[C@H]2C1 | > 100 | > 100 µM | > 100 | > 100 µM | > 100 | > 100 | > 100 µM | – | – | – | – | – | – | – | – | – | – | – | – | –
